Results on two compounds are retold here after patent publication US20240360151A1 (SANOFI, priority 2023, published 2024).

One assay addresses T1, NLRP3 inflammasome (Homo sapiens, UniProt Q96P20).
T1 construct: endogenous in cells; host or cells: THP-1 monocytic cells
As to the kind of experiment: IL-1β secretion assay (NLRP3 IC50) in LPS-primed, nigericin-activated THP-1 cells, HTRF. The format is cell-based. The following applies: monocytic THP-1 cells; LPS 10 ng/mL 3 h priming, then compound + nigericin 10 μM 2 h; relative IC50, 10 concentrations, geometric mean. In short, it runs like this:
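IL-1β in supernatant read by HTRF after 2 h co-incubation of compound (0.1% DMSO, 10 concentrations, 1:3 series) with nigericin at 10 μM final, following 3 h LPS (10 ng/mL) priming of THP-1 monocytes at 37° C. Inhibition normalised to unactivated and no-compound controls; geometric-mean relative IC50 from 4-parameter logistic model.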
A general note: Time-resolved FRET reads energy transfer from a long-lived donor to a nearby acceptor.

The subject of assay [1] is NF-kB pathway (TNF-α secretion by THP-1 cells). Nature of the assay: TNF-α secretion assay in LPS-stimulated THP-1 cells, Lumit immunoassay. Type of assay: cell-based, human. To be noted: Homo sapiens, THP-1, 3 h, monocytic THP-1 cells, LPS 10 ng/mL, relative IC50, 10 concentrations, geometric mean. The method, boiled down:
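TNF-α release was quantified directly in the cell plate by Lumit immunoassay after a 3-h, 10 ng/mL LPS trigger of compound-treated THP-1 cells (RPMI, 5% FBS). Percent inhibition versus no-compound and unstimulated controls fed a 4-parameter logistic fit over 10 concentrations, giving geometric-mean relative IC50.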

T1 sequence (Q96P20 whole entry): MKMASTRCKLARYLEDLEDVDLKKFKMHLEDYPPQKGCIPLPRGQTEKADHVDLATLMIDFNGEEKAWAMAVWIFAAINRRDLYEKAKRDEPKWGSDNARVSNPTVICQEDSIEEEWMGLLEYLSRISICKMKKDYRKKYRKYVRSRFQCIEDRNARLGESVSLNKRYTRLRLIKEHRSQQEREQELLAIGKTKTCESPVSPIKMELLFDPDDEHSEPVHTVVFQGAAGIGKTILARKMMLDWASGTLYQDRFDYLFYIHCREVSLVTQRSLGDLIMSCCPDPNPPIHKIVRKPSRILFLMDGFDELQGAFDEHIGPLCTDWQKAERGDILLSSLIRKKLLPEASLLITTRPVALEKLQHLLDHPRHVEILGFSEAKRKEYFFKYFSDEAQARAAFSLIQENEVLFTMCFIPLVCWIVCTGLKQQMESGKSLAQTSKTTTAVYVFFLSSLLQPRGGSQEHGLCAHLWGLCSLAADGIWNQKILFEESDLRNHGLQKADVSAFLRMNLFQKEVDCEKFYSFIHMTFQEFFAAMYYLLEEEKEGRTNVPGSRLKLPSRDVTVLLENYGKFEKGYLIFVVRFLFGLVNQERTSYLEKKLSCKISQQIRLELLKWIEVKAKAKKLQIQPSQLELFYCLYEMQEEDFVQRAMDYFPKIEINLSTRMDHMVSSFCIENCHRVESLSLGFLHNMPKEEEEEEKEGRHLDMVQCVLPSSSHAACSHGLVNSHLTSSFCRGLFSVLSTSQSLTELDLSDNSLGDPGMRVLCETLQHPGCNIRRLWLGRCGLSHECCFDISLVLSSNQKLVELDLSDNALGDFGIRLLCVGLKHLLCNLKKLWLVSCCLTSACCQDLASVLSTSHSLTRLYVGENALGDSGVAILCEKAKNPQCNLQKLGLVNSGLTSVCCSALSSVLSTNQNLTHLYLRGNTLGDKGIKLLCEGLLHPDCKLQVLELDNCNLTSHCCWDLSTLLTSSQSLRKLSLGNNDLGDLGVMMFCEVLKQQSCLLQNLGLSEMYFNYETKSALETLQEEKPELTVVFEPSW

The IC50 is the concentration at which inhibition is half-maximal. Regarding `Cc1cc(C)c(-c2ccc(N3CCCc4c(O)cccc43)nn2)c(O)c1` [Example 232, 1-[6-(2-hydroxy-4,6-dimethyl-phenyl)pyridazin-3-yl]-3,4-dihydro-2H-quinolin-5-ol], the values for the IC50 (on NLRP3 inflammasome; in assay [1]) were 0.502 µM and 7.63 µM, respectively.

Take `Cc1cc(Cl)cc(O)c1-c1ccc(N2CCOc3cc(O)ccc32)nn1` [Example 193, 4-[6-(4-chloro-2-hydroxy-6-methyl-phenyl)pyridazin-3-yl]-2,3-dihydro-1,4-benzoxazin-7-ol]: the concentration for half-maximal inhibition (IC50) on NLRP3 inflammasome came out at 0.534 µM; in assay [1], 9.83 µM.
